Measured values as given in US20230295162A1 (EÖTVÖS LORÁND TUDOMÁNYEGYETEM, priority 2020, published 2023).
Like-named read-outs stand apart in the source and are kept apart here.

Tests used:
[1] = tested on: A2058 (human metastatic melanoma) cells; assay: Colorimetric alamarBlue assay, long treatment; settings: read-out: cytotoxicity expressed in IC50, A-2058
[2] = tested on: H2228 lung cancer cell line; assay: High-throughput screening, CellTiter-Glo cell viability assay at 100 nM; format: cell-based, human; settings: compounds at 100 nM, 72 h, read-out: cytotoxicity expressed in IC50, H2228 (results of High throughput screening)
Experimental: (§1) EBC-1 (obtained from JRCB, https://cellbank.nibiohn.go.jp/english/) and H2228 (obtained from ATCC https://www.lgcstandards-atcc.org/) cell lines were maintained according to the instructions provided by JRCB and ATCC in a 5% CO2 humidified incubator maintained at 37° C. temperature. Effect of compounds on cell viability was measured via CellTiter-Glo® luminescent cell viability assay (Promega, Madison, WI, USA). Cells were plated at 1000 cells/well onto a flat-bottomed, white 96 well plate (BRANDplates, cat. no.: 781965). After 24 h, cells were treated for 72 h with the compounds at 100 nM concentration. After the treatment, medium was removed and CellTiter-Glo® reagent was added. Untreated cells were used as control. The luminescence signal was recorded using a microplate reader (BioTek Synergy 2 Multi-Mode Reader, BioTek, Winooski, VT, USA). Cell viability data (% of untreated control cells) was evaluated with Microsoft Excel.

[3] = tested on: EBC-1 lung cancer cell line; assay: as above; format: cell-based, human; settings: compounds at 100 nM, 72 h, read-out: cytotoxicity expressed in IC50, EBC-1 (results of High throughput screening)
Experimental: as §1

[4] = tested on: PANC-1 (human pancreatic carcinoma) cells; assay: Impedance-based viability assay (xCELLigence SP), long treatment; format: cell-based; settings: 72 h, read-out: cytotoxicity expressed in IC50, PANC-1
Text: (Gibco®/Invitrogen Corporation, New York, NY, USA).
Data obtained from each experiment represent mathematical averages.

[5] = tested on: COLO-205 (human colorectal adenocarcinoma) cells; assay: Colorimetric alamarBlue assay, long treatment; settings: COLO 205, 72 h, read-out: cytotoxicity expressed in IC50, COLO-205

Molecule	IC50 ([1]; alamarBlue, 72 h) [nM]	IC50 ([2]; HTS) [nM]	IC50 ([3]; HTS) [nM]	IC50 [4] [nM]	IC50 ([1]; Homo sapiens, A2058, 72 h) [nM]	IC50 ([2]; Homo sapiens, NCI-H2228, HTS) [nM]	IC50 ([3]; Homo sapiens, EBC-1, HTS) [nM]	IC50 [5] [nM]
7-Benzyl-4-(4-(4-ferrocenyl-1H-1,2,3-triazol-1-yl)benzyl)-2,4,6,7,8,9-hexahydroimidazo[1,2-a]pyrido[3,4-e]pyrimidin-5(1H)-one [I/121]	2500	> 100	> 100	–	–	–	–	–
O=C1C2=C(CCN(Cc3ccccc3)C2)N2CCN=C2N1Cc1ccccc1F [I/2, reference compound]	–	–	–	4180	2950	> 100	> 100	9970
Cc1ccccc1CN1C(=O)C2=C(CCN(Cc3ccc(F)c(F)c3F)C2)N2CCN=C12 [I/10]	–	–	–	> 10000	> 10000	–	–	> 10000
O=C1C2=C(CCN(Cc3ccccc3)C2)N2CCN=C2N1Cc1ccccc1I [I/11]	–	–	–	> 10000	> 10000	> 100	> 100	> 10000
O=C1C2=C(CCN(Cc3ccccc3)C2)N2CCN=C2N1Cc1ccc(F)c(F)c1F [I/29]	–	–	–	660	> 10000	–	–	> 10000
O=C1C2=C(CCN(Cc3ccccc3)C2)N2CCN=C2N1CCc1cccc(F)c1 [I/44]	–	–	–	> 10000	> 10000	–	–	> 10000
Cc1ccccc1CN1C(=O)C2=C(CCN(CCc3cccc(F)c3)C2)N2CCN=C12 [I/45]	–	–	–	> 10000	> 10000	–	–	> 10000
Cc1ccccc1CN1C(=O)C2=C(CCN(Cc3cccc(F)c3)C2)N2CCN=C12 [I/53]	–	–	–	2000	–	> 100	> 100	2000
O=C1C2=C(CCN(Cc3ccccc3F)C2)N2CCN=C2N1Cc1ccc(I)cc1 [I/54]	–	–	–	1800	–	–	–	2000
O=C1C2=C(CCN(Cc3ccc(F)cc3)C2)N2CCN=C2N1Cc1ccc(I)cc1 [I/55]	–	–	–	760	–	> 100	> 100	1000
NCc1cccc(CN2CCC3=C(C2)C(=O)N(Cc2ccc(I)cc2)C2=NCCN23)c1 [I/59]	–	–	–	660	–	> 100	> 100	–
NCc1cccc(CN2C(=O)C3=C(CCN(Cc4ccc(C(F)(F)F)c(F)c4)C3)N3CCN=C23)c1 [I/73]	–	–	–	> 10000	> 10000	–	–	> 10000
Nc1cccc(CN2C(=O)C3=C(CCN(Cc4ccccc4)C3)N3CCN=C23)c1 [I/75]	–	–	–	6100	25000	> 100	> 100	–
Nc1ccc(CN2CCC3=C(C2)C(=O)N(Cc2ccc(C(F)(F)F)cc2)C2=NCCN23)cc1 [I/81]	–	–	–	21000	–	> 100	> 100	–
Nc1ccc(CN2C(=O)C3=C(CCN(Cc4cccc(F)c4)C3)N3CCN=C23)cc1 [I/84]	–	–	–	23000	–	> 100	> 100	–
Nc1ccc(CN2CCC3=C(C2)C(=O)N(Cc2ccc(F)cc2)C2=NCCN23)cc1 [I/86]	–	–	–	25000	–	> 100	> 100	–
Nc1ccc(CN2CCC3=C(C2)C(=O)N(Cc2ccc(I)cc2)C2=NCCN23)cc1 [I/87]	–	–	–	16000	–	> 100	> 100	–
COc1cc(CN2C(=O)C3=C(CCN(Cc4ccc(N)cc4)C3)N3CCN=C23)cc(OC)c1OC [I/89]	–	–	–	25000	–	> 100	> 100	–
Cc1ccccc1CN1C(=O)C2=C(CCN(Cc3cccc(N=[N+]=[N-])c3)C2)N2CCN=C12 [I/103]	–	–	–	270	25000	> 100	> 100	–
[N-]=[N+]=Nc1ccc(CN2C(=O)C3=C(CCN(Cc4ccccc4)C3)N3CCN=C23)cc1 [I/104]	–	–	–	500	2500	–	–	250
[N-]=[N+]=Nc1cccc(CN2CCC3=C(C2)C(=O)N(Cc2ccc(C(F)(F)F)c(F)c2)C2=NCCN23)c1 [I/112]	–	–	–	100	25000	< 100	< 100	–
[N-]=[N+]=Nc1cccc(CN2CCC3=C(C2)C(=O)N(Cc2ccc(I)cc2)C2=NCCN23)c1 [I/113]	–	–	–	250	250	< 100	< 100	–
